Source: paper PMC6691063, “Increased Body Weight and Fat Mass After Subchronic GIP Receptor Antagonist, but Not GLP-2 Receptor Antagonist, Administration in Rats” (Frontiers in Endocrinology, 2019)
Where two headings read alike, the source gives them in different places.

How the values were obtained:
[1] = system: Male Wistar rats; assay: Subchronic treatment in rats: food intake, body weight, body composition (EchoMRI); format: in vivo, rat; details: vs vehicle, n = 6/group; for Food intake: measured twice a week, cage means; for Body weight: monitored weekly
Procedure: All experiments were in accordance with internationally accepted principles for the care and use of laboratory animals and in compliance with an animal experiment license (2013/15–2934-00833) issued (to JH) by the Danish Committee for Animal Research. Male Wistar rats (Taconic, Denmark) weighing ~200 g at the time of arrival were housed two in each cage at the Panum Institute, Copenhagen, Denmark. They were kept in temperature- (21°C) and humidity-controlled (55%) rooms with light/dark cycles of 12 h with free access to standard rat chow and water.
(§1) After 1 week of acclimatization, animals were allocated into five groups (n = 6/each group). Rats received either vehicle, rat GIP(3-30)NH2, (25 nmol/kg b.w.), human (Pro3)GIP (25 nmol/kg b.w.), human GLP-2(3-33) (25 nmol/kg b.w.), or human GLP-2(11-33) (25 nmol/kg b.w.) sc daily at 6 PM for 3 weeks. […] To study bone resorption, blood was collected from the sublingual vein of rats at −2, −1, 0, 6, 10, 14, 17, 21 days of treatment. The day after the last injection, the rats were euthanized and blood was collected from the vena cava for further biochemical analysis. The liver was excised and samples were snap-frozen in liquid nitrogen and stored at −80°C until assayed.
Food intake was measured twice a week during the study period at 10 AM by subtracting the leftover weights from the initial weights and calculated as cage means (g/rat). Body weight was monitored weekly at 10 AM. Measures of body lean and fat mass were determined in live, conscious animals using quantitative magnetic resonance spectroscopy (EchoMRI-700TM; Echo MRI).

[2] = system: Male Wistar rats; assay: Plasma and intrahepatic triglycerides after subchronic treatment; format: in vivo, rat; details: 25 nmol/kg b.w. sc once daily for 3 weeks, vs vehicle, n = 6/group; for Intrahepatic triglyceride content: liver lipid extract; for Plasma triglyceride levels: terminal blood
Source text: as §1
(§2) To obtain serum, blood samples were allowed to clot for 30 min and were then centrifuged (10 min at 3,000 × g) and stored at −20°C until analysis. To obtain plasma, blood was collected into chilled tubes containing in final concentrations EDTA 3.9 mmol/l and valine-pyrolidide 0.01 mmol/l (a DPP-4 inhibitor, a gift from Novo Nordisk A/S, Bagsvaerd, Denmark). The samples were centrifuged (10 min at 3,000 × g, 4°C) and plasma was kept at −80°C until analysis.
Total liver lipids were extracted as previously described ([31]). The extracts were evaporated under vacuum in a rotary evaporator and re-suspended in 1 ml of isopropanol for quantification of triglycerides. Plasma and intrahepatic triglycerides were assessed using triglyceride determination kit (Sigma-Aldrich, Saint Louis, USA). All samples were analyzed in duplicates in the same assay to prevent inter assay variation.

[3] = system: Male Wistar rats; assay: Plasma lipoprotein lipase (LPL) ELISA after subchronic treatment; format: in vivo, rat; details: 25 nmol/kg b.w. sc once daily for 3 weeks, vs vehicle, n = 6/group
Source text: as §1, with “assayed. […]” for “assayed.”
Bone resorption was assessed by measurements of degradation product from C-terminal cross linked telopeptides of type 1 collagen (CTX, RatLaps; IDS Immunodiagnostic Systems GmbH, Frankfurt am Main, Germany). CTX values were expressed as percent of the mean of the baseline values (days−2,−1, 0) of the individual animal. […] Resistin was measured using rat resistin enzyme immunoassay kit (Bertinpharma, Montigny le Bretonneux, France). […] Leptin was measured using rat leptin enzyme immunoassay kit (Mediagnost, Reutlingen, Germany). […] Adiponectin was measured using rat adiponectin ELISA kit (Millipore, St. Charles, Missouri, USA). […] LPL was measured using lipoprotein lipase ELISA kit (Cell Biolabs, San Diego, CA, USA). […]

[4] = system: Male Wistar rats; assay: Plasma adipokines (leptin, resistin, adiponectin) after subchronic treatment; format: in vivo, rat; details: 25 nmol/kg b.w. sc once daily for 3 weeks, vs vehicle, n = 6/group
Source text: as §1, §2
(§3) Bone resorption was assessed by measurements of degradation product from C-terminal cross linked telopeptides of type 1 collagen (CTX, RatLaps; IDS Immunodiagnostic Systems GmbH, Frankfurt am Main, Germany). CTX values were expressed as percent of the mean of the baseline values (days−2,−1, 0) of the individual animal. The intra- and interassay coefficient of variation (CV's) of the assay is in the range 6–10 and 10–15%, respectively. Resistin was measured using rat resistin enzyme immunoassay kit (Bertinpharma, Montigny le Bretonneux, France). The intra-assay CV is <5%, the inter-assay <10%. Leptin was measured using rat leptin enzyme immunoassay kit (Mediagnost, Reutlingen, Germany). The intra- and inter-assay CV are <5%. Adiponectin was measured using rat adiponectin ELISA kit (Millipore, St. Charles, Missouri, USA). The intra- and inter-assay CV are <2 and <9%, respectively. LPL was measured using lipoprotein lipase ELISA kit (Cell Biolabs, San Diego, CA, USA). The intra- and inter-assay CV are <4 and <8%, respectively. All samples were analyzed in duplicates in the same assay to prevent inter assay variation.

[5] = system: Male Wistar rats; assay: Bone resorption: serum CTX (RatLaps) during subchronic treatment; format: in vivo, rat; details: 25 nmol/kg b.w. sc once daily for 3 weeks, days 0-21, percent of individual baseline, vs vehicle, n = 6/group
Source text: as §1, §2, §3

[6] = target: rat GIPR; details: acts as a partial agonist at the rat GIPR, elsewhere ref 22, 25; cited from earlier work
[7] = cited from earlier work
Source text: Glucose-dependent insulinotropic peptide (GIP) and glucagon-like peptide-2 (GLP-2) are peptide hormones released from K and L cells of the gastrointestinal tract, respectively ([1], [2]). Both exert their functions through activation of specific G protein-coupled receptors ([3], [4]). The GIP receptor (GIPR) is expressed on different cell type including pancreatic cells, adipocytes ([5]), osteoblasts ([6]), and osteoclasts ([7]). The GLP-2 receptor (GLP-2R) is widely expressed in gastrointestinal tract and central nervous system ([8]–[10]) but fewer are found in the liver, vagal afferents, and ...

[8] = Pharmacokinetic study of GIP(3-30)NH2, plasma radioimmunoassay; format: in vivo, rat
Procedure: Samples were taken at 0, 5, 10, 20, 30, and 45 min post-injection of GIP(3-30)NH2. Blood was immediately aliquoted into tubes containing final concentrations of EDTA 3.9 mmol/l. Samples were centrifuged (3,000 × g for 10 min at 4°C) and the plasma stored at −80°C until analysis. GIP(3-30)NH2 concentrations were measured in plasma with an in-house-developed radioimmunoassay ([50]) using a polyclonal antibody (code no. 95236) raised in rabbits against porcine GIP(1-30)NH2. As standard we used rat GIP(3-30)NH2 and the tracer was ^125I-labeled human GIP(3-30NH2).

[9] = 25 nmol/kg b.w. sc once daily for 3 weeks

Compound: (Pro3)GIP
- Body composition (total fat and lean mass) ([1]; 25 nmol/kg b.w. sc once daily for 3 weeks, NMR (EchoMRI)): not associated with changes
- Food intake [1, 9]: not associated with changes
- Body weight [1, 9]: not associated with changes
- Intrahepatic triglyceride content [2]: did not modify
- Plasma triglyceride levels [2]: did not modify
- Plasma lipoprotein lipase (LPL) levels [3]: did not modify
- Plasma levels of adipokines ([4]; leptin, resistin, adiponectin (Figure 2)): did not modify
- Serum CTX levels (bone resorption) [5]: did not affect
- Ki [6]: 19 nM

Compound: Glucose-dependent insulinotropic peptide [GIP]
- Half-life ([7]; humans, DPP-4 mediated degradation): about 7 min

Compound: GLP-2(3-33): Synthetic human GLP-2(3-33), GLP-2R antagonist, from Caslo laboratory (DGSFSDEMNTILDNLAARDFINWLIQTKITD; Glucagon-like peptide 2; UniProt P01275 148-178, looked up, fragment)
- Food intake [1, 9]: did not modify
- Body weight [1, 9]: did not modify
- Serum CTX levels (bone resorption) [5]: did not change

Compound: CC[C@H](C)[C@H](NC(=O)[C@H](CO)NC(=O)[C@H](Cc1ccc(O)cc1)NC(=O)[C@H](CC(=O)O)NC(=O)[C@H](CO)NC(=O)[C@@H](NC(=O)[C@H](Cc1ccccc1)NC(=O)[C@@H](NC(=O)CNC(=O)[C@@H](N)CCC(=O)O)[C@@H](C)O)[C@@H](C)CC)C(=O)N[C@@H](C)C(=O)N[C@@H](CCSC)C(=O)N[C@@H](CC(=O)O)C(=O)N[C@@H](CCCCN)C(=O)N[C@H](C(=O)N[C@@H](CCCNC(=N)N)C(=O)N[C@@H](CCC(N)=O)C(=O)N[C@@H](CCC(N)=O)C(=O)N[C@@H](CC(=O)O)C(=O)N[C@@H](Cc1ccccc1)C(=O)N[C@H](C(=O)N[C@@H](CC(N)=O)C(=O)N[C@@H](Cc1c[nH]c2ccccc12)C(=O)N[C@@H](CC(C)C)C(=O)N[C@@H](CC(C)C)C(=O)N[C@@H](C)C(=O)N[C@@H](CCC(N)=O)C(=O)N[C@@H](CCCCN)C(N)=O)C(C)C)[C@@H](C)CC [GIP(3-30)NH2]
- Lean mass ([1]; 25 nmol/kg b.w. sc once daily for 3 weeks, NMR spectroscopy (EchoMRI)): no difference
- Body fat mass ([1]; 25 nmol/kg b.w. sc once daily for 3 weeks, end of treatment, NMR spectroscopy (EchoMRI)): increased
- Food intake [1, 9]: no measurable effect
- Body weight gain, first 2 weeks of treatment ([1]; 25 nmol/kg b.w. sc once daily): did not show differences
- Body weight gain, third week of treatment ([1]; 25 nmol/kg b.w. sc once daily, p < 0.05): significantly increased
- Intrahepatic triglyceride content [2]: failed to change
- Plasma triglyceride levels [2]: increased
- Plasma lipoprotein lipase (LPL) levels [3]: significantly enhanced
- Plasma adiponectin ([4]; ELISA): no significant effect
- Plasma leptin ([4]; enzyme immunoassay): increased
- Plasma resistin ([4]; enzyme immunoassay): no significant effect
- Serum CTX levels (bone resorption) [5]: did not affect
- Cmax ([8]; rat plasma, after administration, in-house radioimmunoassay, data not shown, read-out: Maximum plasma concentration): ~17 nM
- Tmax ([8]; rat plasma, in-house radioimmunoassay, data not shown, read-out: Time of maximum plasma concentration after administration (converted)): 10 min
- Half-life ([8]; rat plasma, in-house radioimmunoassay, read-out: Half-life after injection): ~20 min
- Duration of exposure for the antagonist ([8]; rat, concluded from peak level and half-life): ≤ 2 h

Compound: glucagon-like peptide-2 [GLP-2]
- Half-life ([7]; human, in vivo): about 7 min

Compound: GLP-2(11-33): Synthetic human GLP-2(11-33), GLP-2R antagonist, from Caslo laboratory (NTILDNLAARDFINWLIQTKITD; Glucagon-like peptide 2; UniProt P01275 156-178, looked up, fragment)
- Food intake [1, 9]: did not modify
- Body weight [1, 9]: did not modify
- Serum CTX levels (bone resorption) [5]: did not change
